# Source: patent publication US9328122B2, “7-substituted Hanfangichin B derivative, and preparation method and use thereof” (HANGZHOU BENSHENG PHARMACEUTICAL CO., LTD., priority 2012, dated 2016)
# Legend:
# tumor = test: Antitumor activity compared with fangchinoline, overall statement; type: cell-based; details: tumor type not specified
# [1] = tested on: Jurkat (acute lymphoblastic leukemia) cells; test: MTT cell growth inhibition, leukemia cells; type: cell-based, human; details: Homo sapiens, Jurkat, 72 h, MTT
# Text: (§1) Leukemia cell lines: leukemia cell lines: K562adr (drug-resistant, chronic myeloid leukemia, CML), NB4 (acute promyelocytic leukemia, AML), Kasumi-1 (acute myeloid leukemia M2 type, AML-M2), Jurkat (acute lymphoblastic leukemia, ALL), all of which were donated by Cancer Research Institute of Zhejiang University, China; and H9 (acute lymphoblastic leukemia, ALL), which was purchased from China Center for Type Culture Collection.
# (§2) Reagents: The standard sample of fangchinoline (FAN) was purchased from Ci Yuan Biotechnology Co., Ltd., Shaanxi, China; and the 7-substituted fangchinoline derivatives according to the present invention.
# (§3) 6000 well-growing leukemia cells were obtained and inoculated into wells of a 96-well cell culture plate. The culture medium was a RPMI-1640 cell culture medium containing 10% fetal bovine serum. After adding the 7-substituted fangchinoline derivatives of different concentrations the next day and mixing uniformly, the plate was placed in a carbon dioxide cell incubator (5% CO2) at 37° C. and incubating for 72 hours. Then the viable cell concentration was determined by the MTT method.
# [2] = tested on: H9 (acute lymphoblastic leukemia) cells; test: MTT cell growth inhibition, leukemia cells; type: cell-based, human; details: Homo sapiens, H9, 72 h, MTT
# Text: as §1, §2, §3
# [3] = tested on: Kasumi-1 (acute myeloid leukemia M2 type) cells; test: MTT cell growth inhibition, leukemia cells; type: cell-based, human; details: Homo sapiens, Kasumi-1, 72 h, MTT
# Text: as §1, §2, §3
# [4] = tested on: NB4 (acute promyelocytic leukemia) cells; test: MTT cell growth inhibition, leukemia cells; type: cell-based; details: Homo sapiens, NB4, 72 h, MTT
# Text: as §1, §2, §3
# [5] = tested on: K562/ADR (K562adr, drug-resistant chronic myeloid leukemia) cells; test: MTT cell growth inhibition, leukemia cells; type: cell-based; details: Homo sapiens, K562/ADR, 72 h, MTT
# Text: as §1, §2, §3
# [6] = tested on: CaEs-17 (esophageal cancer) cells; test: MTT cell growth inhibition, solid tumor cells; type: cell-based, human; details: Homo sapiens, CaEs17, CaEs-17, 72 h, MTT
# Text: (§4) Hep-2 (laryngeal carcinoma), A549 (human lung cancer), CaES-17 (esophageal cancer cell), PC-3 (prostate cancer), CNE (nasopharyngeal carcinoma cell) and SK-OV-3 (ovarian cancer cell), all of which were purchased from China Center For Type Culture Collection; RKO (human colon adenocarcinoma cell), MGC-803 (human gastric cancer cell), MG-63 (osteosarcoma), and U87-MG (malignant glioma cell), all of which were purchased from Fuxiang Bio-tech Co. Ltd., Shanghai, China; PANC-1 (pancreatic cancer), Becap37 (human breast cancer cell), Hela (human cervical cancer cell) and Hep G2 (human liver cancer cell), all of which were donated by Cancer Research Institute of Zhejiang University, China.
# as §3, with “human solid tumor” for “leukemia”, “DMEM High Glucose” for “a RPMI-1640”, “serum. The plate was placed in a carbon dioxide cell incubator (5% CO2) at 37° C. and incubated for 24 hours.” for “serum.”, “added with” for “adding the”, “concentration” for “concentrations the next day”, “incubated” for “incubating”
# [7] = tested on: PANC-1 (pancreatic cancer) cells; test: MTT cell growth inhibition, solid tumor cells; type: cell-based, human; details: Homo sapiens, PANC-1, 72 h, MTT
# Text: as §4
# as §3, with “human solid tumor” for “leukemia”, “DMEM High Glucose” for “a RPMI-1640”, “serum. The plate was placed in a carbon dioxide cell incubator (5% CO2) at 37° C. and incubated for 24 hours.” for “serum.”, “added with” for “adding the”, “concentration” for “concentrations the next day”, “incubated” for “incubating”
# [8] = tested on: CNE (nasopharyngeal carcinoma) cells; test: MTT cell growth inhibition, solid tumor cells; type: cell-based, human; details: Homo sapiens, CNE, 72 h, MTT
# Text: as §4
# as §3, with “human solid tumor” for “leukemia”, “DMEM High Glucose” for “a RPMI-1640”, “serum. The plate was placed in a carbon dioxide cell incubator (5% CO2) at 37° C. and incubated for 24 hours.” for “serum.”, “added with” for “adding the”, “concentration” for “concentrations the next day”, “incubated” for “incubating”
# [9] = tested on: SK-OV-3 (ovarian cancer) cells; test: MTT cell growth inhibition, solid tumor cells; type: cell-based, human; details: Homo sapiens, SK-OV-3, 72 h, MTT
# Text: as §4
# as §3, with “human solid tumor” for “leukemia”, “DMEM High Glucose” for “a RPMI-1640”, “serum. The plate was placed in a carbon dioxide cell incubator (5% CO2) at 37° C. and incubated for 24 hours.” for “serum.”, “added with” for “adding the”, “concentration” for “concentrations the next day”, “incubated” for “incubating”
# [10] = tested on: PC-3 (prostate cancer) cells; test: MTT cell growth inhibition, solid tumor cells; type: cell-based, human; details: Homo sapiens, PC-3, 72 h, MTT
# Text: as §4
# as §3, with “human solid tumor” for “leukemia”, “DMEM High Glucose” for “a RPMI-1640”, “serum. The plate was placed in a carbon dioxide cell incubator (5% CO2) at 37° C. and incubated for 24 hours.” for “serum.”, “added with” for “adding the”, “concentration” for “concentrations the next day”, “incubated” for “incubating”
# [11] = tested on: MGC-803 (human gastric cancer) cells; test: MTT cell growth inhibition, solid tumor cells; type: cell-based; details: MGC-803, 72 h, MTT
# Text: as §4
# as §3, with “human solid tumor” for “leukemia”, “DMEM High Glucose” for “a RPMI-1640”, “serum. The plate was placed in a carbon dioxide cell incubator (5% CO2) at 37° C. and incubated for 24 hours.” for “serum.”, “added with” for “adding the”, “concentration” for “concentrations the next day”, “incubated” for “incubating”
# [12] = tested on: Hep G2 (human liver cancer) cells; test: MTT cell growth inhibition, solid tumor cells; type: cell-based; details: Homo sapiens, HepG2, Hep G2, 72 h, MTT
# Text: as §4
# as §3, with “human solid tumor” for “leukemia”, “DMEM High Glucose” for “a RPMI-1640”, “serum. The plate was placed in a carbon dioxide cell incubator (5% CO2) at 37° C. and incubated for 24 hours.” for “serum.”, “added with” for “adding the”, “concentration” for “concentrations the next day”, “incubated” for “incubating”
# [13] = tested on: U87-MG (malignant glioma) cells; test: MTT cell growth inhibition, solid tumor cells; type: cell-based; details: Homo sapiens, U-87 MG, U87-MG, 72 h, MTT
# Text: as §4
# as §3, with “human solid tumor” for “leukemia”, “DMEM High Glucose” for “a RPMI-1640”, “serum. The plate was placed in a carbon dioxide cell incubator (5% CO2) at 37° C. and incubated for 24 hours.” for “serum.”, “added with” for “adding the”, “concentration” for “concentrations the next day”, “incubated” for “incubating”
# [14] = tested on: Becap-37 (human breast cancer) cells; test: MTT cell growth inhibition, solid tumor cells; type: cell-based; details: Homo sapiens, Becap-37, 72 h, MTT
# Text: as §4
# as §3, with “human solid tumor” for “leukemia”, “DMEM High Glucose” for “a RPMI-1640”, “serum. The plate was placed in a carbon dioxide cell incubator (5% CO2) at 37° C. and incubated for 24 hours.” for “serum.”, “added with” for “adding the”, “concentration” for “concentrations the next day”, “incubated” for “incubating”
# [15] = tested on: A549 (human lung cancer) cells; test: MTT cell growth inhibition, solid tumor cells; type: cell-based; details: Homo sapiens, A549, 72 h, MTT
# Text: as §4
# as §3, with “human solid tumor” for “leukemia”, “DMEM High Glucose” for “a RPMI-1640”, “serum. The plate was placed in a carbon dioxide cell incubator (5% CO2) at 37° C. and incubated for 24 hours.” for “serum.”, “added with” for “adding the”, “concentration” for “concentrations the next day”, “incubated” for “incubating”
# [16] = tested on: Hep-2 (laryngeal carcinoma) cells; test: MTT cell growth inhibition, solid tumor cells; type: cell-based; details: Homo sapiens, Hep-2, 72 h, MTT
# Text: as §4
# as §3, with “human solid tumor” for “leukemia”, “DMEM High Glucose” for “a RPMI-1640”, “serum. The plate was placed in a carbon dioxide cell incubator (5% CO2) at 37° C. and incubated for 24 hours.” for “serum.”, “added with” for “adding the”, “concentration” for “concentrations the next day”, “incubated” for “incubating”
# [17] = tested on: RKO (human colon adenocarcinoma) cells; test: MTT cell growth inhibition, solid tumor cells; type: cell-based; details: Homo sapiens, RKO, 72 h, MTT
# Text: as §4
# as §3, with “human solid tumor” for “leukemia”, “DMEM High Glucose” for “a RPMI-1640”, “serum. The plate was placed in a carbon dioxide cell incubator (5% CO2) at 37° C. and incubated for 24 hours.” for “serum.”, “added with” for “adding the”, “concentration” for “concentrations the next day”, “incubated” for “incubating”
# [18] = tested on: MG-63 (osteosarcoma) cells; test: MTT cell growth inhibition, solid tumor cells; type: cell-based; details: Homo sapiens, MG-63, 72 h, MTT
# Text: as §4
# as §3, with “human solid tumor” for “leukemia”, “DMEM High Glucose” for “a RPMI-1640”, “serum. The plate was placed in a carbon dioxide cell incubator (5% CO2) at 37° C. and incubated for 24 hours.” for “serum.”, “added with” for “adding the”, “concentration” for “concentrations the next day”, “incubated” for “incubating”
# [19] = tested on: Hela (human cervical cancer) cells; test: MTT cell growth inhibition, solid tumor cells; type: cell-based; details: Homo sapiens, Hela, 72 h, MTT
# Text: as §4
# as §3, with “human solid tumor” for “leukemia”, “DMEM High Glucose” for “a RPMI-1640”, “serum. The plate was placed in a carbon dioxide cell incubator (5% CO2) at 37° C. and incubated for 24 hours.” for “serum.”, “added with” for “adding the”, “concentration” for “concentrations the next day”, “incubated” for “incubating”
smiles,measurement,setting,value
COc1ccc2cc1Oc1ccc(cc1)C[C@H]1c3cc(c(OC)cc3CCN1C)Oc1c(OCc3cccc(F)c3F)c(OC)cc3c1[C@H](C2)N(C)CC3 [BS-FC-204],antitumor activity compared with that of fangchinoline,tumor,significantly superior
same,IC50,[1]; read-out: IC50,2.23 µg/mL
same,IC90,[1]; read-out: IC90,3.86 µg/mL
same,IC50,[2]; read-out: IC50,2.2 µg/mL
same,IC90,[2]; read-out: IC90,3.7 µg/mL
same,IC50,[3]; read-out: IC50,1.29 µg/mL
same,IC90,[3]; read-out: IC90,3.16 µg/mL
same,IC50,[4]; read-out: IC50,0.39 µg/mL
same,IC90,[4]; read-out: IC90,2.57 µg/mL
same,IC50,[5]; read-out: IC50,0.38 µg/mL
same,IC90,[5]; read-out: IC90,1.92 µg/mL
same,IC50,[6]; read-out: IC50,4.6 µg/mL
same,IC90,[6]; read-out: IC90,14.5 µg/mL
same,IC50,[7]; read-out: IC50,2.23 µg/mL
same,IC90,[7]; read-out: IC90,6.85 µg/mL
same,IC50,[8]; read-out: IC50,2.7 µg/mL
same,IC90,[8]; read-out: IC90,5.2 µg/mL
same,IC50,[9]; read-out: IC50,12.2 µg/mL
same,IC90,[9]; read-out: IC90,16 µg/mL
same,IC50,[10]; read-out: IC50,3.8 µg/mL
same,IC90,[10]; read-out: IC90,6.39 µg/mL
same,IC50,[11]; read-out: IC50,2.94 µg/mL
same,IC90,[11]; read-out: IC90,8.5 µg/mL
same,IC50,[12]; read-out: IC50,3.73 µg/mL
same,IC90,[12]; read-out: IC90,7.96 µg/mL
same,IC50,[13]; read-out: IC50,2.38 µg/mL
same,IC90,[13]; read-out: IC90,9.1 µg/mL
same,IC50,[14]; read-out: IC50,4.87 µg/mL
same,IC90,[14]; read-out: IC90,7.89 µg/mL
same,IC50,[15]; read-out: IC50,2.16 µg/mL
same,IC90,[15]; read-out: IC90,3.94 µg/mL
same,IC50,[16]; read-out: IC50,3.18 µg/mL
same,IC90,[16]; read-out: IC90,8.31 µg/mL
same,IC50,[17]; read-out: IC50,1.66 µg/mL
same,IC90,[17]; read-out: IC90,2.95 µg/mL
same,IC50,[18]; read-out: IC50,2.6 µg/mL
same,IC90,[18]; read-out: IC90,3.5 µg/mL
same,IC50,[19]; read-out: IC50,0.5 µg/mL
same,IC90,[19]; read-out: IC90,1 µg/mL
